According to US6420419B1, “L-ascorbic acid 2-phosphate zinc salt and process for manufacturing the same” (Showa Denko Kabushiki Kaisha, priority 1997, dated 2002):

Columns and labels:
B. subtilis (168 strain) = experiment: Antimicrobial effect, turbidity in NUTRIENT BROTH; assay type: cell-based; set-up: key: “+” indicates that turbidity increased after incubation; “−” indicates no increase in turbidity; conditions: 0.1% salt, pH 6.8, about 10^7 cells/ml, 37° C. for 24 hours
Protocol: (§1) To NUTRIENT BROTH (produced by DIFCO), 0.1% of an L-ascorbic acid 2-phosphate salt was added thereto, and the pH was adjusted to 6.8 using hydrochloric acid or sodium hydroxide. Using 5 ml of the medium thus prepared, test bacterium were inoculated in a concentration of about 10^7 cells/ml and incubated in a test tube at 37° C. for 24 hours. […] As a control, the same test was performed using a medium not containing an L-ascorbic acid 2-phosphate salt.

E. coli (K-12 strain) = experiment: Antimicrobial effect, turbidity in NUTRIENT BROTH; assay type: cell-based; set-up: key: “+” indicates that turbidity increased after incubation; “−” indicates no increase in turbidity; conditions: 0.1% salt, pH 6.8, about 10^7 cells/ml, 37° C. for 24 hours
Protocol: as §1

[1] = Stability in buffer solution, storage at 50° C. for 476 hours, HPLC; assay type: physicochemical; conditions: for Stability (100% = concentration before storage) pH: 8: about 0.1% in 50 mM Tris-HCl, pH: 8, stored at 50° C. for 476 hours; for Stability (100% = concentration before storage) pH: 5: about 0.1% in 50 mM acetic acid-NaOH, pH: 5, stored at 50° C. for 476 hours
Protocol: In the Examples and Test Examples, the analysis of an L-ascorbic acid 2-phosphate salt or an ion thereof was performed using an Ap-containing solution having a known concentration (prepared from L-ascorbic acid 2-phosphate magnesium salt) as a standard by an HPLC method using a Shodex IEC DEAE-825 resin (ammonium acetate 10 mM→1M gradient, detected spectrophotometrically at 265 nm). The elemental analysis was performed by an ICP emission method, flame photometry and an ion chromatography method. Unless otherwise indicated, the reagents used herein were commercially available reagents.
The stability of L-ascorbic acid 2-phosphate zinc salt was compared to that of L-ascorbic acid 2-phosphate magnesium salt. Each salt was dissolved in a buffer solution (50 mM acetic acid-NaOH, pH: 5, or 50 mM Tris-HCl, pH: 8). to a concentration of about 0.1% and stored at 50° C. for 476 hours. The concentrations of the L-ascorbic acid 2-phosphate before and after storage were analyzed by the HPLC method.

[2] = in water; background statement on conventionally known salts; cited from earlier work
Solubility in water = assay type: physicochemical
[3] = listed as L-ascorbic acid 2-phosphate zinc salt (Example 1)
[4] = listed as L-ascorbic acid 2-phosphate zinc salt (Example 2)

O=C1O[C@H]([C@@H](O)CO)C(O)=C1OP(=O)([O-])[O-].[Zn+2] [Example 1, L-ascorbic acid 2-phosphate zinc salt]
Increase in turbidity after incubation, B. subtilis (168 strain) (B. subtilis (168 strain)): −
Increase in turbidity after incubation, E. coli (K-12 strain) (E. coli (K-12 strain)): −
Stability (100% = concentration before storage) pH: 8 [1, 3]: 93%
Stability (100% = concentration before storage) pH: 5 [1, 3]: 91%

O=C1O[C@H]([C@@H](O)CO)C(O)=C1OP(=O)([O-])[O-].[Zn+2] [Example 2, L-ascorbic acid 2-phosphate zinc salt]
Stability (100% = concentration before storage) pH: 8 [1, 4]: 95%
Stability (100% = concentration before storage) pH: 5 [1, 4]: 92%

O=C1O[C@H]([C@@H](O)CO)C(O)=C1OP(=O)([O-])[O-].[Mg+2] [L-ascorbic acid 2-phosphate magnesium salt]
Increase in turbidity after incubation, B. subtilis (168 strain) (B. subtilis (168 strain)): +
Increase in turbidity after incubation, E. coli (K-12 strain) (E. coli (K-12 strain)): +
Stability (100% = concentration before storage) pH: 8 [1]: 95%
Stability (100% = concentration before storage) pH: 5 [1]: 82%
Concentration of aqueous solution that can be formed [2]: < 30%

O=C1O[C@H]([C@@H](O)CO)C(O)=C1OP(=O)([O-])[O-].[Zn+2] [L-ascorbic acid 2-phosphate zinc salt]
Concentration of aqueous solution easily formed (Solubility in water): ≥ 50 wt %

O=C1O[C@H]([C@@H](O)CO)C(O)=C1OP(=O)([O-])[O-].[Na+].[Na+] [Sodium salt, Sodium L-ascorbic acid 2-phosphate]
Increase in turbidity after incubation, B. subtilis (168 strain) (B. subtilis (168 strain)): +
Increase in turbidity after incubation, E. coli (K-12 strain) (E. coli (K-12 strain)): +
Concentration of aqueous solution that can be formed [2]: about 30%
